In patent US6355799B1, “Substituted benzene compounds, process for their preparation, and herbicidal and defoliant compositions containing them” (ISK Americas Incorporated, priority 1997, dated 2002):

Tests used:
Format in all cases: in vivo
[1] = test system: ivyleaf morningglory (Ipomoea hederacea, IPOHE); assay: Post-emerge test, greenhouse herbicide activity screening; details: post-emerge, 14 days after application, rating scale 0-100
In short: (§1)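 Compounds in acetone were track-sprayed at 15-1000 g ai/ha (187 l/ha) on sandy loam pots: pre-emerge one day after seeding, post-emerge at 2-3 leaf stage with 0.25% v/v non-ionic surfactant. Phytotoxicity was rated 14 days later on a 0 (no damage) to 100 (complete death) scale.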

[2] = test system: sicklepod (Cassia obtusifolia, CASOB); assay: as above; details: post-emerge, 14 days after application, rating scale 0-100
In short: as §1

[3] = test system: green foxtail (Setaria viridis, SETVI); assay: as above; details: post-emerge, 14 days after application, rating scale 0-100
In short: as §1

[4] = test system: johnsongrass (Sorghum halepense, SORHA); assay: as above; details: post-emerge, 14 days after application, rating scale 0-100
In short: as §1

[5] = test system: lambsquarters (Chenopodium album, CHEAL); assay: as above; details: post-emerge, 14 days after application, rating scale 0-100
In short: as §1

[6] = test system: redroot pigweed (Amaranthus retroflexus, AMARE); assay: as above; details: post-emerge, 14 days after application
In short: as §1

[7] = test system: velvetleaf (Abutilon theophrasti, ABUTH); assay: as above; details: post-emerge, 14 days after application, rating scale 0-100
In short: as §1

[8] = test system: large crabgrass (Digitaria sanguinalis, DIGSA); assay: as above; details: post-emerge, 14 days after application, rating scale 0-100
In short: as §1

[9] = test system: barnyardgrass (Echinochloa crus-galli, ECHCG); assay: as above; details: post-emerge, 14 days after application, rating scale 0-100
In short: as §1

[10] = test system: redroot pigweed (Amaranthus retroflexus, AMARE); assay: Pre-emerge test, greenhouse herbicide activity screening; details: phytotoxicity rating 0-100, 14 days after application
In short: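 Visual ratings on a 0-100 scale (0 no damage, 100 all plants dead) were taken at 14 days after treatment. Rates of 15-1000 g ai/ha in acetone, 187 l/ha, were sprayed onto soil one day after planting (pre-emerge) or onto 2-3 leaf plants with 0.25% v/v surfactant (post-emerge).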

[11] = test system: field corn (Zea mays L., var. Dekalb 535, CORN); assay: Post-emerge test, crop safety; details: post-emerge, 14 days after application, rating scale 0-100
In short: (§2)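 Sandy loam pots; pre-emerge: sown 1 d pre-spray, surface-watered after, then bottom-watered. Post-emerge: sown 8–21 d before, 2–3 leaf stage, + 0.25% v/v NIS, bottom-watered. Acetone, 187 l/ha track spray, 15–1000 g ai/ha. 0–100 injury score, day 14.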

[12] = test system: upland rice (Oryza sp., var. Tebonnet, RICE); assay: Post-emerge test, crop safety; details: post-emerge, 14 days after application, rating scale 0-100
In short: as §2

[13] = test system: field corn (Zea mays L., var. Dekalb 535, CORN); assay: Pre-emerge test, crop safety; details: crop damage rating 0-100, 14 days after application
In short: (§3)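 Plants grown in 10 cm pots of sandy loam mix received acetone-dissolved compounds through a moving flat-fan nozzle. Doses ranged from 15 to 1000 g ai/ha. Pre-emerge pots were seeded one day earlier, post-emerge pots 8–21 days earlier. Fourteen days on, each pot was graded 0–100 for damage.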

[14] = test system: upland rice (Oryza sp., var. Tebonnet, RICE); assay: Pre-emerge test, crop safety; details: crop damage rating 0-100, 14 days after application
In short: as §3

[15] = test system: ivyleaf morningglory (Ipomoea hederacea, IPOHE); assay: Pre-emerge test, greenhouse herbicide activity screening; details: phytotoxicity rating 0-100, 14 days after application
In short: as §2

[16] = test system: sicklepod (Cassia obtusifolia, CASOB); assay: as above; details: phytotoxicity rating 0-100, 14 days after application
In short: as §2

[17] = test system: green foxtail (Setaria viridis, SETVI); assay: as above; details: phytotoxicity rating 0-100, 14 days after application
In short: as §2

[18] = test system: johnsongrass (Sorghum halepense, SORHA); assay: as above; details: phytotoxicity rating 0-100, 14 days after application
In short: as §2

[19] = test system: lambsquarters (Chenopodium album, CHEAL); assay: as above; details: phytotoxicity rating 0-100, 14 days after application
In short: as §2

[20] = test system: velvetleaf (Abutilon theophrasti, ABUTH); assay: as above; details: phytotoxicity rating 0-100, 14 days after application
In short: as §2

[21] = test system: large crabgrass (Digitaria sanguinalis, DIGSA); assay: as above; details: phytotoxicity rating 0-100, 14 days after application
In short: as §2

[22] = test system: barnyardgrass (Echinochloa crus-galli, ECHCG); assay: as above; details: phytotoxicity rating 0-100, 14 days after application
In short: as §2

COc1c(Cl)cc(F)c(-n2c(=O)cc(C(F)(F)F)n(C)c2=O)c1NC(=O)Nc1ccccc1 [Compound 3-4]
40: phytotoxicity rating ABUTH ([7]; 63 g ai/ha)
15: Pre-emerge Herbicidal Activity RICE ([14]; 250 g ai/ha)
0: phytotoxicity rating IPOHE ([1]; 63 g ai/ha) | phytotoxicity rating IPOHE ([1]; 250 g ai/ha) | phytotoxicity rating CASOB ([2]; 63 g ai/ha) | phytotoxicity rating CASOB ([2]; 250 g ai/ha) | phytotoxicity rating SETVI ([3]; 63 g ai/ha) | phytotoxicity rating SETVI ([3]; 250 g ai/ha) | phytotoxicity rating SORHA ([4]; 63 g ai/ha) | phytotoxicity rating SORHA ([4]; 250 g ai/ha) | phytotoxicity rating CHEAL ([5]; 63 g ai/ha) | phytotoxicity rating CHEAL ([5]; 250 g ai/ha) | phytotoxicity rating AMARE ([6]; 63 g ai/ha, rating scale 0-100 (0 no damage, 100 complete death)) | phytotoxicity rating AMARE ([6]; 250 g ai/ha, rating scale 0-100) | phytotoxicity rating DIGSA ([8]; 63 g ai/ha) | phytotoxicity rating DIGSA ([8]; 250 g ai/ha) | phytotoxicity rating ECHCG ([9]; 63 g ai/ha) | phytotoxicity rating ECHCG ([9]; 250 g ai/ha) | Pre-emerge Herbicidal Activity AMARE ([10]; 63 g ai/ha) | phytotoxicity rating CORN (crop damage) ([11]; 63 g ai/ha) | phytotoxicity rating CORN (crop damage) ([11]; 250 g ai/ha) | phytotoxicity rating RICE (crop damage) ([12]; 63 g ai/ha) | Pre-emerge Herbicidal Activity CORN ([13]; 63 g ai/ha) | Pre-emerge Herbicidal Activity CORN ([13]; 250 g ai/ha) | Pre-emerge Herbicidal Activity RICE ([14]; 63 g ai/ha) | Pre-emerge Herbicidal Activity IPOHE ([15]; 63 g ai/ha) | Pre-emerge Herbicidal Activity CASOB ([16]; 63 g ai/ha) | Pre-emerge Herbicidal Activity SORHA ([18]; 63 g ai/ha) | Pre-emerge Herbicidal Activity CHEAL ([19]; 63 g ai/ha) | Pre-emerge Herbicidal Activity ABUTH ([20]; 63 g ai/ha) | Pre-emerge Herbicidal Activity DIGSA ([21]; 63 g ai/ha) | Pre-emerge Herbicidal Activity ECHCG ([22]; 63 g ai/ha) | Pre-emerge Herbicidal Activity ECHCG ([22]; 250 g ai/ha)
10: phytotoxicity rating RICE (crop damage) ([12]; 250 g ai/ha) | Pre-emerge Herbicidal Activity SORHA ([18]; 250 g ai/ha) | Pre-emerge Herbicidal Activity DIGSA ([21]; 250 g ai/ha)
100: Pre-emerge Herbicidal Activity AMARE ([10]; 250 g ai/ha) | Pre-emerge Herbicidal Activity CHEAL ([19]; 250 g ai/ha) | Pre-emerge Herbicidal Activity ABUTH ([20]; 250 g ai/ha)
20: Pre-emerge Herbicidal Activity SETVI ([17]; 63 g ai/ha)
50: phytotoxicity rating ABUTH ([7]; 250 g ai/ha) | Pre-emerge Herbicidal Activity IPOHE ([15]; 250 g ai/ha)
60: Pre-emerge Herbicidal Activity CASOB ([16]; 250 g ai/ha) | Pre-emerge Herbicidal Activity SETVI ([17]; 250 g ai/ha)
